Experimental data as given in patent US20090291088A1, “THERAPEUTIC COMBINATIONS OF ANTI-IGF-1R ANTIBODIES AND OTHER COMPOUNDS” (Biogen Idec MA Inc., priority 2008, published 2009).

How the values were obtained:
[1] = system: NSCLC, pancreatic, and colon cancer cell lines; test: Cell viability, M13-C06 and PD0325901 alone or combined; type: cell-based; conditions: PD0325901 single agent
Description: Cells were plated at 5000 cells/well in 96-well tissue culture plates in RPMI-1640 containing 10% fetal bovine serum, then treated with M13-C06 and PD0325901 as single agents or in combination at 1:3 serial dilutions with a starting concentration of 200 nM for M13-C06 and 10 microM for PD0325901. Cell viability was determined three or five days later by measuring ATP levels with CELL TITER GLO™ reagent from Promega.

IGF-1R-Fc = test: Surface plasmon resonance analysis of the IGF-1R-Fc mutant library (46 mutants); type: binding, human; conditions: for C06 binding: M13-C06 Fab; for C06 binding / C03 binding / G11 binding / P1E2 binding / αIR3 binding: KD relative to WT hIGF-1R-Fc; for C03 binding: M14-C03 Fab; for G11 binding: M14-G11 Fab; for P1E2 binding: P1E2 antibody; for αIR3 binding: αIR3 antibody; for loss in affinity for M14-G11 Fab based on the measured KD: mutant versus wild-type
Description: Surface plasmon resonance (SPR) experiments were performed on a Biacore 3000 instrument set to 25° C. Both mIGF-1R-Fc and hIGF-1R-Fc bind with high apparent affinity to research grade CM5 sensorchip surfaces containing immobilized M13-C06, M14-C03, and M14-G11. The antibody sensorchip surfaces were prepared by injecting each antibody (diluted 100 μg/mL in 10 mM Acetate, pH 4.0) over EDC/NHS-activated sensorchip surfaces according to the standard protocol of the manufacturer. The ability of mIGF-1R-Fc to bind the antibody surfaces was the result of high apparent avidity of the protein. Both hIGF-1R-Fc and mIGF-1R-Fc proteins oligomerize due to the incorporation of two separate homodimeric regions (IGF-1R and IgG1-Fc). To distinguish between actual high affinity antibody binding to hIGF-1R-Fc and low affinity antibody binding to mIGF-1R-Fc, the receptor-Fc fusions were captured on the M13-C06 and M14-G11 sensorchip surfaces followed by an additional injection of antibody (αIR3 and P1E2) or antibody Fab (M13-C06, M14-C03, and M14-G11). […] After, completion of the receptor-Fc loading step, flow rates were elevated to 5 μl/min. Solutions containing M13-C06 Fab or αIR3 antibody at 10 nM, 3 nM, or 1 nM or M14-C03 Fab, M14-G11 Fab, or P1E2 antibody at 30 nM, 10 nM, or 3 nM were injected (50 μL) subsequent to the loading of each receptor-Fc construct. Dissociation was measured for 7 minutes after the antibody injections were complete. Finally, the flow rate was elevated to 30 μL/min and the chip surfaces were regenerated by 2×10 μL injections of 0.1 M glycine, pH 2.
M13-C06, M14-C03, M14-G11, P1E2 and αIR3 were assayed for their ability to interact with each of the mutant IGF-1R-Fc fusion constructs using surface plasmon resonance (Biacore). To remove the uncertain concentrations of the IGF-1R-Fc fusion constructs as a variable in the assay, each mutant construct was captured on a research grade CM5 chip containing ˜10,000 RU immobilized […], M14-C03, and M14-G11 antibody. To enhance our ability to visualize attenuations in antibody binding to the captured mutant IGF-1R constructs, we utilized enzymatically derived M13-C06, M14-C03, and M14-G11 antigen binding fragments (Fabs).

IGF-1R = test: Biacore analysis of the IGF-1R-Fc mutant library: M13-C06 Fab binding to receptor-Fc captured on M13-C06 chip; set-up: species or system human; conditions: for Biacore Relative RUmax: M13-C06 Fab binding to mutant hIGF-1R-Fc captured on M13-C06 chip
From the text: Both mIGF-1R-Fc and hIGF-1R-Fc bind with high apparent affinity to the M13-C06, M14-C03, and M14-G11 sensorchip surfaces described above due to their highly multivalent nature induced by the incorporation of two separate homodimeric regions (IGF-1R and IgG1-Fc). To distinguish between the actual high affinity binding hIGF-1R-Fc to M13-C06 and the low affinity binding of mIGF-1R-Fc to M13-C06, the receptor-Fc fusions were captured on the M13-C06 sensorchip surface followed by an additional soluble M13-C06 Fab binding event. […] After, completion of the receptor-Fc loading step, flow rates were elevated to 5 μl/min. 10 nM, […], and 1 nM M13-C06 Fab concentrations were injected (50 μL) subsequent to the loading of each receptor-Fc construct. At the end of each sensorgram, the flow rate was elevated to 30 μl/min and the chip surface was regenerated by 2×10 μL injections of 0.1 M glycine, pH 2.

Compound	Biacore Relative RUmax (IGF-1R)	loss in affinity for M14-G11 Fab based on the measured KD (IGF-1R-Fc)	binding activity toward M13-C06 (IGF-1R; SPR and tr-FRET, both assays)	cell growth ([1]; 7 NSCLC cell lines)	cell growth ([1]; BxPC3 and Panc-1)	cell growth ([1]; H460 and H1650)	cell growth ([1]; MiaPaCa2 and Su86.86)	C06 binding (IGF-1R-Fc)	C03 binding (IGF-1R-Fc)	G11 binding (IGF-1R-Fc)	P1E2 binding (IGF-1R-Fc)	αIR3 binding (IGF-1R-Fc)	effect of mutation on M13-C06 and M14-C03 Fab binding (IGF-1R-Fc)
O=C(NOC[C@H](O)CO)c1ccc(F)c(F)c1Nc1ccc(I)cc1F [PD0325901, (R)—N-(2,3-dihydroxypropoxy)-3,4-difluoro-2-(2-fluoro-4-iodophenylamino)benzamide, reference compound]				five of them were sensitive to PD0325901 inhibition	intermediate response	showed less response	sensitive to PD0325901 as a single agent						
SD006: hIGF-1R-Fc mutant A227K	1.7							NE (No effect (NE): measured KD within 2.5-fold of WT hIGF-1R-Fc)	NE (No effect (NE): measured KD within 2.5-fold of WT hIGF-1R-Fc)	NE (No effect (NE): measured KD within 2.5-fold of WT hIGF-1R-Fc)	NE (No effect (NE): measured KD within 2.5-fold of WT hIGF-1R-Fc)	NE (No effect (NE): measured KD within 2.5-fold of WT hIGF-1R-Fc)	
SD009: hIGF-1R-Fc mutant E264K	0.6							NE (No effect (NE): measured KD within 2.5-fold of WT hIGF-1R-Fc)	NE (No effect (NE): measured KD within 2.5-fold of WT hIGF-1R-Fc)	NE (No effect (NE): measured KD within 2.5-fold of WT hIGF-1R-Fc)	NE (No effect (NE): measured KD within 2.5-fold of WT hIGF-1R-Fc)	NE (No effect (NE): measured KD within 2.5-fold of WT hIGF-1R-Fc)	
SD012: hIGF-1R-Fc mutant E303G	0.3	approximately 3 fold						NE (No effect (NE): measured KD within 2.5-fold of WT hIGF-1R-Fc)	NE (No effect (NE): measured KD within 2.5-fold of WT hIGF-1R-Fc)	W (Weak (W): measured KD between 2.5-10-fold higher than WT)	W (Weak (W): measured KD between 2.5-10-fold higher than WT)	W (Weak (W): measured KD between 2.5-10-fold higher than WT)	
SD013: hIGF-1R-Fc mutant D405K	0.7							NE (No effect (NE): measured KD within 2.5-fold of WT hIGF-1R-Fc)	NE (No effect (NE): measured KD within 2.5-fold of WT hIGF-1R-Fc)	NE (No effect (NE): measured KD within 2.5-fold of WT hIGF-1R-Fc)			
SD015: hIGF-1R-Fc mutant H464E (Table 20), E464H			virtually no binding activity					S (Strong (S): binding to antibody was ablated by mutation)	S (Strong (S): binding to antibody was ablated by mutation)	NE (No effect (NE): measured KD within 2.5-fold of WT hIGF-1R-Fc)			complete ablation of the binding reaction
SD016: hIGF-1R-Fc mutant D531Q_V532N	2.0							NE (No effect (NE): measured KD within 2.5-fold of WT hIGF-1R-Fc)	NE (No effect (NE): measured KD within 2.5-fold of WT hIGF-1R-Fc)	NE (No effect (NE): measured KD within 2.5-fold of WT hIGF-1R-Fc)			
SD017: hIGF-1R-Fc mutant I650S	2.0							NE (No effect (NE): measured KD within 2.5-fold of WT hIGF-1R-Fc)	NE (No effect (NE): measured KD within 2.5-fold of WT hIGF-1R-Fc)	NE (No effect (NE): measured KD within 2.5-fold of WT hIGF-1R-Fc)			

More lines, main results first:

Biacore Relative RUmax (IGF-1R)	loss in affinity for M14-G11 Fab based on the measured KD (IGF-1R-Fc)	binding activity toward M13-C06 (IGF-1R; SPR and tr-FRET, both assays)	Compound	cell growth ([1]; 7 NSCLC cell lines)	cell growth ([1]; BxPC3 and Panc-1)	cell growth ([1]; H460 and H1650)	cell growth ([1]; MiaPaCa2 and Su86.86)	C06 binding (IGF-1R-Fc)	C03 binding (IGF-1R-Fc)	G11 binding (IGF-1R-Fc)	P1E2 binding (IGF-1R-Fc)	αIR3 binding (IGF-1R-Fc)	effect of mutation on M13-C06 and M14-C03 Fab binding (IGF-1R-Fc)
1.3			SD007: hIGF-1R-Fc mutant N237G					NE (No effect (NE): measured KD within 2.5-fold of WT hIGF-1R-Fc)	NE (No effect (NE): measured KD within 2.5-fold of WT hIGF-1R-Fc)	NE (No effect (NE): measured KD within 2.5-fold of WT hIGF-1R-Fc)	NE (No effect (NE): measured KD within 2.5-fold of WT hIGF-1R-Fc)	NE (No effect (NE): measured KD within 2.5-fold of WT hIGF-1R-Fc)	
1.5	approximately 3 fold		SD008: hIGF-1R-Fc mutant S257F (Table 20), S258F (Table 17)					NE (No effect (NE): measured KD within 2.5-fold of WT hIGF-1R-Fc)	NE (No effect (NE): measured KD within 2.5-fold of WT hIGF-1R-Fc)	W (Weak (W): measured KD between 2.5-10-fold higher than WT)	W (Weak (W): measured KD between 2.5-10-fold higher than WT)	NE (No effect (NE): measured KD within 2.5-fold of WT hIGF-1R-Fc)	
0.8			SD010: hIGF-1R-Fc mutant G271D					NE (No effect (NE): measured KD within 2.5-fold of WT hIGF-1R-Fc)	NE (No effect (NE): measured KD within 2.5-fold of WT hIGF-1R-Fc)	NE (No effect (NE): measured KD within 2.5-fold of WT hIGF-1R-Fc)	NE (No effect (NE): measured KD within 2.5-fold of WT hIGF-1R-Fc)	NE (No effect (NE): measured KD within 2.5-fold of WT hIGF-1R-Fc)	
1.8			SD011: hIGF-1R-Fc mutant G285S_S286T					NE (No effect (NE): measured KD within 2.5-fold of WT hIGF-1R-Fc)	NE (No effect (NE): measured KD within 2.5-fold of WT hIGF-1R-Fc)	NE (No effect (NE): measured KD within 2.5-fold of WT hIGF-1R-Fc)	NE (No effect (NE): measured KD within 2.5-fold of WT hIGF-1R-Fc)	NE (No effect (NE): measured KD within 2.5-fold of WT hIGF-1R-Fc)	
0.6			SD014: hIGF-1R-Fc mutant K412A_A413Q					NE (No effect (NE): measured KD within 2.5-fold of WT hIGF-1R-Fc)	NE (No effect (NE): measured KD within 2.5-fold of WT hIGF-1R-Fc)	NE (No effect (NE): measured KD within 2.5-fold of WT hIGF-1R-Fc)	NE (No effect (NE): measured KD within 2.5-fold of WT hIGF-1R-Fc)	NE (No effect (NE): measured KD within 2.5-fold of WT hIGF-1R-Fc)	
1.7			SD018: hIGF-1R-Fc mutant E665A					NE (No effect (NE): measured KD within 2.5-fold of WT hIGF-1R-Fc)	NE (No effect (NE): measured KD within 2.5-fold of WT hIGF-1R-Fc)	NE (No effect (NE): measured KD within 2.5-fold of WT hIGF-1R-Fc)			
1.9			SD019: hIGF-1R-Fc mutant E739W L741F (Table 20), A739W_I741F (Table 17)					NE (No effect (NE): measured KD within 2.5-fold of WT hIGF-1R-Fc)	NE (No effect (NE): measured KD within 2.5-fold of WT hIGF-1R-Fc)	NE (No effect (NE): measured KD within 2.5-fold of WT hIGF-1R-Fc)			
